Like-named read-outs stand apart in the source and are kept apart here.
Assays:
Test in all cases: Test C pre-/postemergence greenhouse herbicide test
Type in all cases: in vivo
[1] = system: ryegrass, Italian (Italian ryegrass, Lolium multiflorum); conditions: Lolium multiflorum, Ryegrass, Italian, read-out: Plant response rating; for pest or weed control at 31 g/ha: 31 g ai/ha; for pest or weed control at 62 g/ha: 62 g ai/ha; for pest or weed control at 125 g/ha: 125 g ai/ha; for pest or weed control at 250 g/ha: 250 g ai/ha
Summary of the method: (§1)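 Seeds in loam–sand blend sprayed preemergence, and 1- to 4-leaf plants (2–18 cm) sprayed postemergence, with compounds in non-phytotoxic solvent plus surfactant. Visual rating versus controls after 13–15 d in greenhouse, 0 (no effect) to 100 (complete control).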

[2] = system: foxtail, giant (giant foxtail, Setaria faberii); conditions: Setaria faberi, Foxtail, Giant, read-out: Plant response rating; for pest or weed control at 31 g/ha: 31 g ai/ha; for pest or weed control at 62 g/ha: 62 g ai/ha; for pest or weed control at 125 g/ha: 125 g ai/ha; for pest or weed control at 250 g/ha: 250 g ai/ha
Summary of the method: as §1

[3] = system: crabgrass, Large (large crabgrass, Digitaria sanguinalis); conditions: Digitaria sanguinalis, Crabgrass, Large, read-out: Plant response rating; for pest or weed control at 31 g/ha: 31 g ai/ha; for pest or weed control at 62 g/ha: 62 g ai/ha; for pest or weed control at 125 g/ha: 125 g ai/ha; for pest or weed control at 250 g/ha: 250 g ai/ha
Summary of the method: as §1

[4] = system: oilseed rape (Brassica napus); conditions: Oilseed Rape
Summary of the method: as §1

[5] = system: morningglory (Ipomoea coccinea); conditions: Morningglory
Summary of the method: as §1

[6] = system: blackgrass (Alopecurus myosuroides); conditions: Alopecurus myosuroides, Blackgrass, read-out: Plant response rating; for pest or weed control at 31 g/ha: 31 g ai/ha; for pest or weed control at 62 g/ha: 62 g ai/ha; for pest or weed control at 125 g/ha: 125 g ai/ha; for pest or weed control at 250 g/ha: 250 g ai/ha
Summary of the method: as §1

corn (Zea mays) = conditions: Zea mays, Corn, read-out: Plant response rating; for plant injury at 62 g/ha: 62 g ai/ha; for plant injury at 125 g/ha: 125 g ai/ha; for plant injury at 250 g/ha: 250 g ai/ha
Summary of the method: as §1

[7] = system: velvetleaf (Abutilon theophrasti); conditions: Abutilon theophrasti, Velvetleaf, read-out: Plant response rating; for pest or weed control at 62 g/ha: 62 g ai/ha; for pest or weed control at 125 g/ha: 125 g ai/ha; for pest or weed control at 250 g/ha: 250 g ai/ha
Summary of the method: as §1

[8] = system: nutsedge, yellow (yellow nutsedge, Cyperus esculentus); conditions: Cyperus, Nutsedge, Yellow, read-out: Plant response rating; for pest or weed control at 31 g/ha: 31 g ai/ha; for pest or weed control at 62 g/ha: 62 g ai/ha; for pest or weed control at 125 g/ha: 125 g ai/ha
Summary of the method: as §1

[9] = system: lambsquarters (Chenopodium album)
Summary of the method: as §1

[10] = system: pigweed (Amaranthus retroflexus); conditions: Amaranthus retroflexus, Pigweed, read-out: Plant response rating; for pest or weed control at 62 g/ha: 62 g ai/ha; for pest or weed control at 125 g/ha: 125 g ai/ha; for pest or weed control at 250 g/ha: 250 g ai/ha
Summary of the method: as §1

soybean (Glycine max) = conditions: Glycine max, Soybean, read-out: Plant response rating; for plant injury at 62 g/ha: 62 g ai/ha; for plant injury at 125 g/ha: 125 g ai/ha; for plant injury at 250 g/ha: 250 g ai/ha
Summary of the method: as §1

[11] = pre-emergence, Preemergence, 31 g ai/ha
[12] = post-emergence, Postemergence, 31 g ai/ha

Compound: Cc1cc(=O)n(-c2ccc(C(F)(F)F)cc2)nc1Cc1ccnc(C(F)(F)F)c1 [Compound 2, 5-methyl-2-[4-(trifluoromethyl)phenyl]-6-[[2-(trifluoromethyl)-4-pyridinyl]methyl]-3(2H)-pyridazinone]
- pest or weed control at 31 g/ha ([1]; post-emergence, Postemergence): 5%
- pest or weed control at 62 g/ha ([1]; post-emergence, Postemergence): 5%
- pest or weed control at 125 g/ha ([1]; post-emergence, Postemergence): 5%
- pest or weed control at 250 g/ha ([1]; post-emergence, Postemergence): 5%
- pest or weed control at 31 g/ha ([1]; pre-emergence, Preemergence): 5%
- pest or weed control at 62 g/ha ([1]; pre-emergence, Preemergence): 15%
- pest or weed control at 125 g/ha ([1]; pre-emergence, Preemergence): 65%
- pest or weed control at 250 g/ha ([1]; pre-emergence, Preemergence): 85%
- pest or weed control at 31 g/ha ([2]; post-emergence, Postemergence): 10%
- pest or weed control at 62 g/ha ([2]; post-emergence, Postemergence): 10%
- pest or weed control at 125 g/ha ([2]; post-emergence, Postemergence): 25%
- pest or weed control at 250 g/ha ([2]; post-emergence, Postemergence): 25%
- pest or weed control at 31 g/ha ([2]; pre-emergence, Preemergence): 45%
- pest or weed control at 62 g/ha ([2]; pre-emergence, Preemergence): 98%
- pest or weed control at 125 g/ha ([2]; pre-emergence, Preemergence): 100%
- pest or weed control at 250 g/ha ([2]; pre-emergence, Preemergence): 100%
- pest or weed control at 31 g/ha ([3]; post-emergence, Postemergence): 5%
- pest or weed control at 62 g/ha ([3]; post-emergence, Postemergence): 5%
- pest or weed control at 125 g/ha ([3]; post-emergence, Postemergence): 15%
- pest or weed control at 250 g/ha ([3]; post-emergence, Postemergence): 35%
- pest or weed control at 31 g/ha ([3]; pre-emergence, Preemergence): 75%
- pest or weed control at 62 g/ha ([3]; pre-emergence, Preemergence): 80%
- pest or weed control at 125 g/ha ([3]; pre-emergence, Preemergence): 100%
- pest or weed control at 250 g/ha ([3]; pre-emergence, Preemergence): 100%
- Plant response rating ([4]; Postemergence, 31 g ai/ha): 5
- Plant response rating ([4]; Postemergence, 62 g ai/ha): 30
- Plant response rating ([4]; Postemergence, 125 g ai/ha): 45
- Plant response rating ([4]; Postemergence, 250 g ai/ha): 50
- Plant response rating ([4]; Preemergence, 31 g ai/ha): 100
- Plant response rating ([4]; Preemergence, 62 g ai/ha): 100
- Plant response rating ([4]; Preemergence, 125 g ai/ha): 100
- Plant response rating ([4]; Preemergence, 250 g ai/ha): 100
- Plant response rating ([5]; Postemergence, 31 g ai/ha): 10
- Plant response rating ([5]; Postemergence, 125 g ai/ha): 15
- Plant response rating ([5]; Postemergence, 250 g ai/ha): 15
- Plant response rating ([5]; Preemergence, 31 g ai/ha): 55
- Plant response rating ([5]; Preemergence, 62 g ai/ha): 65
- Plant response rating ([5]; Preemergence, 125 g ai/ha): 85
- Plant response rating ([5]; Preemergence, 250 g ai/ha): 100
- pest or weed control at 31 g/ha ([6]; post-emergence, Postemergence): 5%
- pest or weed control at 62 g/ha ([6]; post-emergence, Postemergence): 5%
- pest or weed control at 125 g/ha ([6]; post-emergence, Postemergence): 10%
- pest or weed control at 250 g/ha ([6]; post-emergence, Postemergence): 15%
- pest or weed control at 31 g/ha ([6]; pre-emergence, Preemergence): 10%
- pest or weed control at 62 g/ha ([6]; pre-emergence, Preemergence): 45%
- pest or weed control at 125 g/ha ([6]; pre-emergence, Preemergence): 90%
- pest or weed control at 250 g/ha ([6]; pre-emergence, Preemergence): 90%
- plant injury at 62 g/ha (corn (Zea mays); post-emergence, Postemergence): 20%
- plant injury at 125 g/ha (corn (Zea mays); post-emergence, Postemergence): 20%
- plant injury at 250 g/ha (corn (Zea mays); post-emergence, Postemergence): 20%
- plant injury at 31 g/ha (corn (Zea mays); [11]): 35%
- plant injury at 62 g/ha (corn (Zea mays); pre-emergence, Preemergence): 55%
- plant injury at 125 g/ha (corn (Zea mays); pre-emergence, Preemergence): 75%
- plant injury at 250 g/ha (corn (Zea mays); pre-emergence, Preemergence): 75%
- pest or weed control at 31 g/ha [7, 12]: 25%
- pest or weed control at 62 g/ha ([7]; post-emergence, Postemergence): 30%
- pest or weed control at 125 g/ha ([7]; post-emergence, Postemergence): 30%
- pest or weed control at 250 g/ha ([7]; post-emergence, Postemergence): 35%
- pest or weed control at 62 g/ha ([7]; pre-emergence, Preemergence): 40%
- pest or weed control at 125 g/ha ([7]; pre-emergence, Preemergence): 85%
- pest or weed control at 250 g/ha ([7]; pre-emergence, Preemergence): 85%
- pest or weed control at 31 g/ha ([8]; post-emergence, Postemergence): 5%
- pest or weed control at 62 g/ha ([8]; post-emergence, Postemergence): 5%
- pest or weed control at 125 g/ha ([8]; post-emergence, Postemergence): 5%
- pest or weed control at 250 g/ha ([8]; post-emergence, Postemergence, 250 g ai/ha): 10%
- pest or weed control at 31 g/ha ([8]; pre-emergence, Preemergence): 10%
- pest or weed control at 62 g/ha ([8]; pre-emergence, Preemergence): 25%
- pest or weed control at 125 g/ha ([8]; pre-emergence, Preemergence): 35%
- Plant response rating ([9]; Postemergence, 31 g ai/ha): 55
- Plant response rating ([9]; Postemergence, 62 g ai/ha): 70
- Plant response rating ([9]; Postemergence, 125 g ai/ha): 75
- Plant response rating ([9]; Postemergence, 250 g ai/ha): 80
- Plant response rating ([9]; Preemergence, 31 g ai/ha): 100
- Plant response rating ([9]; Preemergence, 62 g ai/ha): 100
- Plant response rating ([9]; Preemergence, 125 g ai/ha): 100
- Plant response rating ([9]; Preemergence, 250 g ai/ha): 100
- pest or weed control at 62 g/ha ([10]; post-emergence, Postemergence): 55%
- pest or weed control at 125 g/ha ([10]; post-emergence, Postemergence): 60%
- pest or weed control at 250 g/ha ([10]; post-emergence, Postemergence): 60%
- pest or weed control at 31 g/ha [10, 11]: 100%
- pest or weed control at 62 g/ha ([10]; pre-emergence, Preemergence): 100%
- pest or weed control at 125 g/ha ([10]; pre-emergence, Preemergence): 100%
- pest or weed control at 250 g/ha ([10]; pre-emergence, Preemergence): 100%
- plant injury at 31 g/ha (soybean (Glycine max); [12]): 20%
- plant injury at 62 g/ha (soybean (Glycine max); post-emergence, Postemergence): 30%
- plant injury at 125 g/ha (soybean (Glycine max); post-emergence, Postemergence): 40%
- plant injury at 250 g/ha (soybean (Glycine max); post-emergence, Postemergence): 40%
- plant injury at 62 g/ha (soybean (Glycine max); pre-emergence, Preemergence): 25%
- plant injury at 125 g/ha (soybean (Glycine max); pre-emergence, Preemergence): 55%
- plant injury at 250 g/ha (soybean (Glycine max); pre-emergence, Preemergence): 60%
